Like-named read-outs stand apart in the source and are kept apart here.
What was measured:
[1] = system: Influenza virus A/PR/8/34 (H1N1); test: Cytopathic effect (CPE) assay of two-drug combinations in MDCK cells, MacSynergy II analysis; format: cell-based
influenza B = test: Antiviral activity of the combinations against influenza B; format: cell-based; settings: combination with Compound 1
[2] = combination with Compound 1, A/PR/8/34 (H1N1) in MDCK cells, 0.125-8x EC50 checkerboard, MacSynergy II

| SMILES | Antagonism volume (95%) [1, 2] | Synergy volume (95%) [1, 2] | Combination effect ([1]; combination with Compound 1, A/PR/8/34 (H1N1) in MDCK cells, MacSynergy II) | Synergistic effect in influenza antiviral CPE assays ([1]; combination with Compound 1, IFV A/PR/8/34 (H1N1)) | Antiviral activity against influenza B (influenza B) | Synergy volume (95%) [1] | Combination effect [1] | Synergistic effect in influenza antiviral CPE assays [1] |
| --- | --- | --- | --- | --- | --- | --- | --- | --- |
| CCC(CC)O[C@@H]1C=C(C(=O)O)C[C@H](N)[C@H]1NC(C)=O [Oseltamivir acid, oseltamivir acid] | −9.19 | 269.37 | Strong synergism | strong synergistic effect | exhibit antiviral activity | – | – | – |
| O=C1c2c(O)c(=O)ccn2N([C@@H]2c3ccccc3SCc3c2ccc(F)c3F)[C@@H]2COCCN12 [Baloxavir, baloxavir] | −12.28 | – | – | – | – | 285.84 | – | – |
| NC(=O)c1nc(F)c[nH]c1=O [Favipiravir, favipiravir] | −3.15 | – | – | – | exhibit antiviral activity | 413.85 | Strong synergism | strong synergistic effect |

From patent publication US12233066B2, “Combinations of inhibitors of influenza virus replication” (COCRYSTAL PHARMA, INC., priority 2018, dated 2025)
